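Abbreviation: GI50, concentration required for 50% inhibition of growth. TGI is the concentration that stops growth completely.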
Legend:
Assay in all cases: NCI tumour cell line growth inhibition, 384-well format; in the data active = GI50 below about 0.43 µM; inactive = the rest
K-562 leukemia = test system: K-562 leukemia
ACHN renal = test system: ACHN renal
NCI-H322M lung = test system: NCI-H322M lung
T-47D breast = test system: T-47D breast
SF-295 CNS = test system: SF-295 CNS
DU-145 prostate = test system: DU-145 prostate
HL-60(TB) leukemia = test system: HL-60(TB) leukemia
RXF 393 renal = test system: RXF 393 renal
HCC-2998 colon = test system: HCC-2998 colon
MCF7 breast = test system: MCF7 breast
NCI/ADR-RES ovarian = test system: NCI/ADR-RES ovarian
LOX IMVI melanoma = test system: LOX IMVI melanoma
SF-539 CNS = test system: SF-539 CNS
MDA-MB-468 breast = test system: MDA-MB-468 breast
UACC-62 melanoma = test system: UACC-62 melanoma
A549 NSCLC = test system: A549 NSCLC
SF-268 CNS = test system: SF-268 CNS
786-0 renal = test system: 786-0 renal
OVCAR-5 ovarian = test system: OVCAR-5 ovarian
MOLT-4 leukemia = test system: MOLT-4 leukemia
SK-MEL-5 melanoma = test system: SK-MEL-5 melanoma
SW-620 colon = test system: SW-620 colon
SNB-75 CNS = test system: SNB-75 CNS
UO-31 renal = test system: UO-31 renal
NCI-H522 lung = test system: NCI-H522 lung
TK-10 renal = test system: TK-10 renal
CCRF-CEM leukemia = test system: CCRF-CEM leukemia
NCI-H226 lung = test system: NCI-H226 lung
SR leukemia = test system: SR leukemia
A498 renal = test system: A498 renal
KM12 colon = test system: KM12 colon
UACC-257 melanoma = test system: UACC-257 melanoma
HOP-92 NSCLC = test system: HOP-92 NSCLC
COLO 205 colon = test system: COLO 205 colon
MALME-3M melanoma = test system: MALME-3M melanoma
HCT-15 colon = test system: HCT-15 colon
OVCAR-3 ovarian = test system: OVCAR-3 ovarian
CAKI-1 renal = test system: CAKI-1 renal
NCI-H23 lung = test system: NCI-H23 lung
SNB-19 CNS = test system: SNB-19 CNS
RPMI-8226 leukemia = test system: RPMI-8226 leukemia
HOP-62 NSCLC = test system: HOP-62 NSCLC
MDA-MB-231 breast = test system: MDA-MB-231 breast
HS 578T breast = test system: HS 578T breast
OVCAR-4 ovarian = test system: OVCAR-4 ovarian
SN12C renal = test system: SN12C renal
IGROV1 ovarian = test system: IGROV1 ovarian
SK-MEL-28 melanoma = test system: SK-MEL-28 melanoma
NCI-H460 NSCLC = test system: NCI-H460 NSCLC
PC-3 prostate = test system: PC-3 prostate
SK-OV-3 ovarian = test system: SK-OV-3 ovarian
EKVX NSCLC = test system: EKVX NSCLC
BT-549 breast = test system: BT-549 breast
HT29 colon = test system: HT29 colon
OVCAR-8 ovarian = test system: OVCAR-8 ovarian
MDA-MB-435 melanoma = test system: MDA-MB-435 melanoma
M14 melanoma = test system: M14 melanoma

C=CC(=O)N1CCC(c2ccc(C(N)=O)c(-c3ccc(Oc4ccccc4)cc3)n2)CC1
37.2 µM: TGI (NCI/ADR-RES ovarian)
79.9 µM: TGI (DU-145 prostate)
72.4 µM: TGI (NCI-H226 lung)
30.7 µM: TGI (NCI-H522 lung)
90.3 µM: TGI (HCC-2998 colon)
71.5 µM: TGI (NCI-H460 NSCLC)
inactive: GI50 (K-562 leukemia) 28.8 µM | GI50 (ACHN renal) 32.4 µM | GI50 (NCI-H322M lung) 25.3 µM | GI50 (T-47D breast) 16.9 µM | GI50 (SF-295 CNS) 41.1 µM | GI50 (DU-145 prostate) 24.7 µM | GI50 (HL-60(TB) leukemia) 15 µM | GI50 (RXF 393 renal) 24.9 µM | GI50 (HCC-2998 colon) 29.5 µM | GI50 (MCF7 breast) 28.6 µM | GI50 (NCI/ADR-RES ovarian) 16.6 µM | GI50 (LOX IMVI melanoma) 25.1 µM | GI50 (SF-539 CNS) 27 µM | GI50 (MDA-MB-468 breast) 3.99 µM | GI50 (UACC-62 melanoma) 40.4 µM | GI50 (A549 NSCLC) 34.8 µM | GI50 (SF-268 CNS) 35.3 µM | GI50 ([…]-0 renal) 29.2 µM | GI50 (OVCAR-5 ovarian) > 100 µM | GI50 (MOLT-4 leukemia) 12.7 µM | GI50 (SK-MEL-5 melanoma) 18 µM | GI50 (SW-620 colon) 32.9 µM | GI50 (SNB-75 CNS) 37.6 µM | GI50 (UO-31 renal) 74.1 µM | GI50 (NCI-H522 lung) 12.2 µM | GI50 (TK-10 renal) 25.2 µM | GI50 (CCRF-CEM leukemia) 17.4 µM | GI50 (NCI-H226 lung) 22.7 µM | GI50 (SR leukemia) 11.7 µM | GI50 (A498 renal) 21.3 µM | GI50 (KM12 colon) 37.3 µM | GI50 (UACC-257 melanoma) 18.3 µM | GI50 (HOP-92 NSCLC) 20 µM | GI50 (COLO 205 colon) 89.8 µM | GI50 (MALME-3M melanoma) 29.7 µM | GI50 (HCT-15 colon) 30.6 µM | GI50 (OVCAR-3 ovarian) 27.1 µM | GI50 (CAKI-1 renal) 23.5 µM | GI50 (NCI-H23 lung) 28.3 µM | GI50 (SNB-19 CNS) 39.7 µM | GI50 (RPMI-8226 leukemia) 15.1 µM | GI50 (HOP-62 NSCLC) 25.4 µM | GI50 (MDA-MB-231 breast) 30.8 µM | GI50 (HS 578T breast) 21.1 µM | GI50 (OVCAR-4 ovarian) 25.7 µM | GI50 (SN12C renal) 33.1 µM | GI50 (IGROV1 ovarian) 21.3 µM | GI50 (SK-MEL-28 melanoma) 95.1 µM | GI50 (NCI-H460 NSCLC) 27.4 µM | GI50 (PC-3 prostate) 41.2 µM | GI50 (SK-OV-3 ovarian) 26.9 µM | GI50 (EKVX NSCLC) 22.6 µM | GI50 (BT-549 breast) 17.9 µM | GI50 (HT29 colon) 59.6 µM | GI50 (OVCAR-8 ovarian) 23.8 µM | GI50 (MDA-MB-435 melanoma) 38.7 µM | GI50 (M14 melanoma) 33.9 µM
87.2 µM: TGI (T-47D breast)
84.1 µM: TGI (EKVX NSCLC)
41.8 µM: TGI (BT-549 breast)
83.7 µM: TGI (HOP-62 NSCLC)
78.5 µM: TGI (SF-539 CNS)
26.7 µM: TGI (SR leukemia)
69.7 µM: TGI (OVCAR-4 ovarian)
35.8 µM: TGI (SK-MEL-5 melanoma)
25.7 µM: TGI (MOLT-4 leukemia)
66.1 µM: TGI (OVCAR-8 ovarian)
83.4 µM: TGI (MALME-3M melanoma)
91 µM: TGI (HOP-92 NSCLC)
73.5 µM: TGI (RXF 393 renal)
58.9 µM: TGI (HS 578T breast)
> 100 µM: TGI (K-562 leukemia) | TGI (ACHN renal) | TGI (NCI-H322M lung) | TGI (SF-295 CNS) | TGI (MCF7 breast) | TGI (UACC-62 melanoma) | TGI (A549 NSCLC) | TGI (SF-268 CNS) | TGI (786-0 renal) | TGI (OVCAR-5 ovarian) | TGI (SNB-75 CNS) | TGI (UO-31 renal) | TGI (KM12 colon) | TGI (COLO 205 colon) | TGI (HCT-15 colon) | TGI (CAKI-1 renal) | TGI (NCI-H23 lung) | TGI (SNB-19 CNS) | TGI (MDA-MB-231 breast) | TGI (SN12C renal) | TGI (SK-MEL-28 melanoma) | TGI (PC-3 prostate) | TGI (SK-OV-3 ovarian) | TGI (HT29 colon) | TGI (MDA-MB-435 melanoma) | TGI (M14 melanoma)
29.3 µM: TGI (RPMI-8226 leukemia)
28.3 µM: TGI (HL-60(TB) leukemia)
66.5 µM: TGI (OVCAR-3 ovarian)
10.2 µM: TGI (MDA-MB-468 breast)
69.9 µM: TGI (A498 renal)
34.2 µM: TGI (CCRF-CEM leukemia)
62.9 µM: TGI (LOX IMVI melanoma)
84.9 µM: TGI (SW-620 colon)
81.4 µM: TGI (TK-10 renal)
56 µM: TGI (IGROV1 ovarian)
42.1 µM: TGI (UACC-257 melanoma)
